Test results taken from patent US20120021077A1, “SYNERGISTIC HERBAL COMPOSITION FOR TREATMENT OF RHEUMATIC AND MUSCULO-SKELETAL DISORDERS (RMSDS)” (priority 2007, published 2012).
Read-outs that look alike come from different tables or passages of the source.

Experiments:
[1] = system: Acetic acid induced writhing in mice; experiment: Acetic acid induced writhing (peripheral analgesic model); format: in vivo, albino mice
Experimental: (§1) Analgesic and anti-inflammatory activity studies for crude drug powders or extracts and formulations there off were carried out in known animal models. Central (formalin-induced model) and peripheral (acetic acid induced model) analgesic activities were studied in albino mice, while wistar rats were used for acute (carrageenan induced paw edema model) and sub-acute (turpentine oil-induced granuloma pouch model) anti-inflammatory activity. Suitable positive and negative controls were used for the studies. The data obtained is statistically significant (P value<0.05) and reproducible.
The total number of writhings following intra-peritoneal administration of 0.6% acetic acid, 10 ml/Kg body weight was recorded for 20 minutes, starting 10 minutes after injection. The animals were pre-treated with test samples (100, 200 and 400 mg/Kg p.o.) 30 minutes prior to above treatment, simultaneously using Aspirin (30 mg/kg p.o.) as a positive control.

[2] = system: Carrageenan induced rat paw edema; experiment: Carrageenan induced rat paw edema (acute anti-inflammatory); format: in vivo, wistar rats; details: anti-inflammatory studies, model not specified
Experimental: as §1
Various doses of test sample (100, 200 and 400 mg/Kg p.o.) and standard Indomethacin (10 mg/kg p.o.) were administered to different groups of rats. Acute inflammation was induced half an hour after the above treatment by injection of 0.1 ml of freshly prepared 1% (in water) suspension of Carrageenan sodium in sub-planter region of rat right hind paw. Paw volume was measured by plethysmographic method initially and then at 1, 2, 3, 4, 24, 48 and 72 hrs after carrageenan injection.

[3] = system: human OA cartilage explants; experiment: Glycosaminoglycan (GAG) release from human OA cartilage explants; format: cell-based; details: for Percent control GAG release: control = 100%
Experimental: Aqueous extracts of each capsule were freshly prepared as required. Contents of each capsule were solubilized in distilled water (10 mG/mL) by limited autoclaving. Each extract was filter sterilized prior to addition to cartilage explants at the required final concentration. This method of herbal extract preparation gave reproducible sterility and biological activity (Sumantran et al, 2007).
Patients (age 55-75 years) suffered from chronic osteoarthritis (OA) for 5-15 years prior to knee replacement surgery. Cartilage integrity was recorded by macroscopic and microscopic examination, using the Outerbridge scale. Only non-calcified, grade 1-2 articular cartilage from the lateral femoral condyles was used (Outerbridge 1961).
OA cartilage explants were cultured as described earlier (Sumantran et al, 2007). Briefly, explants were treated for 24 hours with/without sterile aqueous extracts of each capsule, and re-fed with growth media without herbal extract every two days for eight days. Conditioned media (CM) samples from each explant were collected prior to each re-feed. All CM samples per OA patient were thawed and assayed for GAG and NO levels simultaneously. Aggrecan assays were done after analysis of the GAG release data.
Total GAG levels in CM samples were measured by the dimethylmethylene blue assay using Chondroitin sulphate as a standard (Hoemann et al, 2002). NO levels in CM samples were estimated using the Griess reagent.
GAG content is expressed as microgram equivalents of Chondroitin sulphate. NO is expressed in micromoles/mG of explant/mL of CM. Units of Aggrecan are micrograms/mG of explant/mL of CM. Each marker is measured at each time point for each CM sample derived from each patient.
Levels of GAG, NO, or aggrecan levels in CM samples from explants at each time, point, per patient, treated with/without drug; were tested for statistical significance at the 95% confidence level using the Students 2 tailed t-test for paired samples. We calculated the effect of drug extracts in each CM sample, at each time point, per patient sample; using the ratio shown below:
Long-term versus Short-term activity: Long-term chondroprotective or anti-inflammatory activity is the ability of a drug to cause a statistically significant decrease in levels of GAG, aggrecan, or NO release by OA cartilage explants, relative to controls. This effect must be observed for at least 3 of the 4 time points during in vitro culture. Short-term activity is similar, but is detected at only 1 or 2 of the 4 time points tested.
In explant model of OA cartilage damage, GAG released by cartilage explants for 5 time points after a 24 hour drug treatment was measured. The effect on GAG release from cartilage explants of six OA patients treated with/without aqueous extracts of formulations C and C+G (100 microg/mLeach) was studied. […] Glucosamine and celecoxib each caused a statistically significant, 25% decrease in GAG release at time point 4, compared to controls.

symptomatic OA knees = experiment: Phase II 24-week comparator controlled trial of equivalence; format: in vivo, patients; design: W_DIFF, mean change between baseline and completion (Mean ± SD) / W_TOTAL, mean change between baseline and completion (Mean ± SD) / W_PAIN, mean change between baseline and completion (Mean ± SD) / W_STIFF, mean change between baseline and completion (Mean ± SD): scale not given here; details: 24 weeks
Description: • Phase II, Randomized, double blind, comparator (Celecoxib & Glucosamine) controlled, multicentric trial of equivalence. • Study Duration-24 weeks • Sample size (statistically powered 80% with α<0.05)—440 patients with symptomatic OA knees • 4 arm-2 Ayurvedic Interventions (C, C+) Celecoxib & Glucosamine, parallel efficacy study • 110 patients in each arm • No rescue medication permitted

[4] = system: human OA cartilage explants; experiment: Aggrecan release from human OA cartilage explants; format: cell-based
Description: The kit uses a mixture of monoclonal antibodies to different epitopes of aggrecan, thereby ensuring sensitive and rapid estimation of aggrecan.

OA cartilage explants = experiment: Nitric oxide (NO) release by OA cartilage explants; format: cell-based, human
[5] = system: symptomatic knee osteoarthritis; experiment: 16-week randomized double blind placebo and comparator controlled trial (NMITLI OA stage I/2); format: in vivo, patients
Experimental: NMITLI OA stage I/2: The said formulation was evaluated in a randomized double blind placebo controlled, multicentric 16 week clinical trial in 245 patients with symptomatic knee osteoarthritis. This was This was a 7 arm exploratory study, aimed to evaluate the efficacy and safety of 5 multiplant formulations using Shunthi-Guduchi as a common platform formulation in all. Glucosamine was the positive comparator.
Glucosamine was the positive comparator in this study.
The clinical trials are conducted on the following basis: • Randomized, Double Blind, parallel efficacy, Placebo & Comparator controlled study • 245 patients in a 7 arm (5 ayurvedic arms coded as A-E, placebo-1, Glucosamine-1) study of 16 weeks duration. • 35 patients in each arm • Monitored pain rescue medication (oral paracetamol) permitted on SOS basis • Intent to treat analysis with last observation carried forward • All arms well-matched at baseline for demographics and efficacy.

[6] = system: active Rheumatoid arthritis (RA); experiment: NMITLI RA stage I/1, 24-week study; format: in vivo, patients; details: week 24
Description: NMITLI RA STAGE I/1: A randomized double blind comparator controlled parallel efficacy multicentric 24-week study in patients with active Rheumatoid arthritis (RA). In this study, formulation B and a proprietary ayurvedic formulation were compared to Hydroxychloroquine (HCQS), which is a popular DMARD (Disease Modifying Anti Rheumatoid Drug) in modern medicine rheumatology. As a complex painful inflammatory polyarticular disease, several efficacy variables, both clinical and laboratory were used to evaluate efficacy—Joint Counts for pain/tenderness and swelling, pain VAS, Patients Global assessments by the patient and physician, Health Assessment Questionnaire (a validated instrument for functional ability for Indian use), ESR, CRP and cytokines markers.
At baseline, all the groups were matched well in several demographic and efficacy measures. […] The overall safety of Ayurvedic formulations was better than HCQS.

[7] = system: arachidonic acid (AA) induced platelet activation in human whole blood; details: read-out: anti-platelet activity IC(50); cited from earlier work
mouse bone marrow = details: test drugs 2000 mg/kg oral; cyclophosphamide 75 mg/kg i.p.
Experimental: Assessment of genotoxicity using mouse bone marrow micronucleus test and Salmonella reverse mutation test was carried out according to OECD guidelines No. 474 and 471 respectively.
Genotoxicity study was carried out using mammalian bone marrow micronucleus test with the limit test at a single dose level of 2000 mg/kg body weight. The test drug was suspended in 1% CMC (carboxy methyl cellulose) and administered orally to the experimental animals. Control animals received 1% CMC alone. […] Treatment was given for two consecutive days at 0 h and 24 h. […] All the mice were sacrificed at 6th hr. after the last treatment (30th hr. after first dose) and femur bones were excised and bone marrow contents were flushed with fetal calf serum. Bone marrow cells were centrifuged spread as a smear on glass slide and stained using Giemsa stain and May-Grunwald stain. […] Minimum 2000 PCEs were scored from each animal. All the slides were coded prior to scoring and decoded after completion of scoring.

[8] = time point 3, controls set at 100%
[9] = time point 4, controls set at 100%

Cc1ccc(-c2cc(C(F)(F)F)nn2-c2ccc(S(N)(=O)=O)cc2)cc1 [Celecoxib]
dose with significant peripheral analgesic activity [1]: 400 mg/kg
minimum dose with significant anti-inflammatory activity [2]: 200 mg/kg
Percent control GAG release ([3]; time point 1, 100 microg/mL): 90.24 ± 25.71%
Percent control GAG release ([3]; time point 2, 100 microg/mL): 84.87 ± 28.54%
Percent control GAG release ([3]; time point 3, 100 microg/mL): 87.83 ± 28.99%
decrease in GAG release compared to controls ([3]; time point 4): 25%
Percent control GAG release ([3]; time point 4, 100 microg/mL): 74.81 ± 31.83%
Percent control GAG release ([3]; time point 5, 100 microg/mL): 89.42 ± 31.98%
PainVAS, mean change between baseline and completion (Mean ± SD) (symptomatic OA knees): −1.82 ± 1.95
W_DIFF, mean change between baseline and completion (Mean ± SD) (symptomatic OA knees): −6.93 ± 9.88
W_PAIN, mean change between baseline and completion (Mean ± SD) (symptomatic OA knees): −1.89 ± 3.01
W_STIFF, mean change between baseline and completion (Mean ± SD) (symptomatic OA knees): −0.34 ± 1.91
W_TOTAL, mean change between baseline and completion (Mean ± SD) (symptomatic OA knees): −9.17 ± 13.05

N[C@H]1C(O)O[C@H](CO)[C@@H](O)[C@@H]1O (stereo partly drawn) [Glucosamine]
dose with significant peripheral analgesic activity [1]: 400 mg/kg
minimum dose with significant anti-inflammatory activity [2]: devoid of any anti-inflammatory activity
Glycosaminoglyan (GAG) release, decrease ([3]; long term = at least 3 of 4 time points, short term = 1 or 2): Short term
Percent control GAG release ([3]; time point 1, 100 microg/mL): 118.96 ± 34.74%
Percent control GAG release ([3]; time point 2, 100 microg/mL): 91.70 ± 16.55%
mean decrease of GAGs release relative to control explants ([3]; time point 3): 26%
Percent control GAG release ([3]; time point 3, 100 microg/mL): 86.52 ± 19.36%
mean decrease in levels of GAG and aggrecan release relative to controls ([3]; time point 3, both markers): 25-35%
levels of GAG released compared to controls (FIG. 1) [3, 8]: 73.72±9.69%
decrease in GAG release compared to controls ([3]; time point 4): 25%
mean decrease of GAGs release relative to control explants ([3]; time point 4): 20%
Percent control GAG release ([3]; time point 4, 100 microg/mL): 76.01 ± 19.96%
levels of GAG released compared to controls (FIG. 2) [3, 9]: 81.38±14.35%
Percent control GAG release ([3]; time point 5, 100 microg/mL): 87.15 ± 20.83%
Aggrecan (AGG) release, decrease [4]: Significant
mean decrease of Aggrecan release relative to control explants ([4]; time point 3): 34%
levels of aggrecan released compared to controls (FIG. 1) [4, 8]: 66.13±21.81%
Aggrecan release by cartilage explants ([4]; time point 4, 5 patients): not significantly decreased
levels of aggrecan released compared to controls (FIG. 2) [4, 9]: 86.07±21.71%
Nitric oxide (NO) release, decrease (OA cartilage explants): No significant
Nitric oxide (NO) release, decrease (OA cartilage explants; listed as gulosamine): did not significantly decrease
Daily consumption Paracetamol, Mean, AVR_TOTAL ([5]; all visits): 1.7950
PATG (1-5 grades), baseline mean ([5]; baseline): 3.52 grades
PainVAS (0-100 mm), baseline mean ([5]; baseline): 64.8 mm
WOMAC Pain (0-20 score), baseline mean ([5]; baseline): 8.0 score
PATG, mean of percent change from baseline ([5]; over 16 weeks): 15.4%
PainVAS, mean of percent change from baseline ([5]; over 16 weeks): 21%
WOMAC Pain, mean of percent change from baseline ([5]; over 16 weeks): 14.2%
Daily consumption Paracetamol, Mean, AVR_PAR3 ([5]; visit 3): 2.0110
Daily consumption Paracetamol, Mean, AVR_PAR4 ([5]; visit 4): 1.9038
Daily consumption Paracetamol, Mean, AVR_PAR5 ([5]; visit 5): 1.9863
Daily consumption Paracetamol, Mean, AVR_PAR6 ([5]; visit 6): 1.8846
Daily consumption Paracetamol, Mean, AVR_PAR7 ([5]; visit 7): 1.3516
PainVAS, mean change between baseline and completion (Mean ± SD) (symptomatic OA knees): −2.45 ± 2.23
W_DIFF, mean change between baseline and completion (Mean ± SD) (symptomatic OA knees): −8.12 ± 10.89
W_PAIN, mean change between baseline and completion (Mean ± SD) (symptomatic OA knees): −2.72 ± 3.26
W_STIFF, mean change between baseline and completion (Mean ± SD) (symptomatic OA knees): −0.49 ± 1.61
W_TOTAL, mean change between baseline and completion (Mean ± SD) (symptomatic OA knees): −11.33 ± 13.75

CCN(CCO)CCCC(C)Nc1ccnc2cc(Cl)ccc12 (stereo not drawn) [HCQS, Hydroxychloroquine]
efficacy in RA, individual group analysis [6]: several significant improvements

CC(=O)Oc1ccccc1C(=O)O [aspirin]
IC50 [7]: 20 µM

O=P1(N(CCCl)CCCl)NCCCO1 (stereo not drawn) [cyclophosphamide]
micronucleus induction / mutagenic effect (mouse bone marrow): significant increase in percent micronuclei: PCE ratio
